Results reported in US10266497B2 (ABIDE THERAPEUTICS, INC., priority 2017, dated 2019).
pIC50: −log10 of the molar value.

Legend:
[1] = biological target: T1, MAGL (Mus musculus, UniProt O35678); experiment: Mouse brain proteomes from inhibitor treated mice (oral gavage, sacrificed 4 h after administration); assay type: in vivo; parameters: mouse brain membrane fraction for mouse assays; from tissue; host or cells: mouse brain (membrane fraction in vitro; brain proteomes of treated C57Bl/6J mice in vivo); details: 5 mg/kg oral gavage, brain proteome 4 h after administration, read-out: MAGL % inh. 5 mg/kg (mouse)
T1 sequence (O35678 1-303): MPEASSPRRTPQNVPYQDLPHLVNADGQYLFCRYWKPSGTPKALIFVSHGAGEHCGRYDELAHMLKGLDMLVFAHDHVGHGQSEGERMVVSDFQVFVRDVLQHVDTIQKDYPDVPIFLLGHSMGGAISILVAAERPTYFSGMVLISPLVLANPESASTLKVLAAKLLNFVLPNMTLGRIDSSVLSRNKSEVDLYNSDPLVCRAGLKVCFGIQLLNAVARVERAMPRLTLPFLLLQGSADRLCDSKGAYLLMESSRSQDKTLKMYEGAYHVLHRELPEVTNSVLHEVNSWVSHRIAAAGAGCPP

[2] = biological target: T2, FAAH (Homo sapiens, UniProt O00519); experiment: In vitro competitive activity-based protein profiling, FAAH, human; details: for inhibition at 1 µM: read-out: FAAH % inh. 1 μM (human)
T2 sequence (O00519 1-579): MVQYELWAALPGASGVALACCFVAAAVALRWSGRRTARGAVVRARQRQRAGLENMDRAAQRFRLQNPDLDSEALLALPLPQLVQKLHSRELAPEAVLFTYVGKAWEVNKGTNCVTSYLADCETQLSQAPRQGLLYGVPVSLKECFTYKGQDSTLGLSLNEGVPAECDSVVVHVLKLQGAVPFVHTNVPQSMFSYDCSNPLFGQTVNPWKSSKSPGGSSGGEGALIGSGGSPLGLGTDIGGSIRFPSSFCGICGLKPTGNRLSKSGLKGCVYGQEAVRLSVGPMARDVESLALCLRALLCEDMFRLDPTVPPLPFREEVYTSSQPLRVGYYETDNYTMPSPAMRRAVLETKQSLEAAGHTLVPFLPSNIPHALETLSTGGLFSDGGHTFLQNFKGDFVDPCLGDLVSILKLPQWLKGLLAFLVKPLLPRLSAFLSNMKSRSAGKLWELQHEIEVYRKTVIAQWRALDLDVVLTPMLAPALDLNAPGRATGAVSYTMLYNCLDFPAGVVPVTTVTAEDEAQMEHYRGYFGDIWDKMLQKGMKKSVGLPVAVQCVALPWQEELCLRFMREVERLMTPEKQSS

[3] = biological target: T3, MAGL (Homo sapiens, UniProt Q99685); experiment: In vitro competitive activity-based protein profiling, MAGL, human; details: read-out: MAGL % inh. 1 μM (human)
T3 sequence (Q99685 1-303): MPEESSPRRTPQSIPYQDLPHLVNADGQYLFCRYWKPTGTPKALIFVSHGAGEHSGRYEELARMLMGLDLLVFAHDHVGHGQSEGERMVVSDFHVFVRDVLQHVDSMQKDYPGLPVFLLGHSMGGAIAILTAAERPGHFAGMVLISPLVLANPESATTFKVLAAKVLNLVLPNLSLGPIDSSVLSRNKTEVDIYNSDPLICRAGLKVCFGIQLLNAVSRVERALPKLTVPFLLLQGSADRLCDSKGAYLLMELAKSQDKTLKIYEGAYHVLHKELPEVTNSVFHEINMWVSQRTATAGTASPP

[4] = biological target: T4, FAAH (Mus musculus, UniProt O08914); experiment: Mouse brain proteomes from inhibitor treated mice (oral gavage, sacrificed 4 h after administration), FAAH; assay type: in vivo; parameters: mouse brain membrane fraction for mouse assays; from tissue; host or cells: mouse brain (membrane fraction in vitro; brain proteomes of treated C57Bl/6J mice in vivo); details: 5 mg/kg oral gavage, brain proteome 4 h after administration, read-out: FAAH % inh. 5 mg/kg (mouse)
T4 sequence (O08914 1-579): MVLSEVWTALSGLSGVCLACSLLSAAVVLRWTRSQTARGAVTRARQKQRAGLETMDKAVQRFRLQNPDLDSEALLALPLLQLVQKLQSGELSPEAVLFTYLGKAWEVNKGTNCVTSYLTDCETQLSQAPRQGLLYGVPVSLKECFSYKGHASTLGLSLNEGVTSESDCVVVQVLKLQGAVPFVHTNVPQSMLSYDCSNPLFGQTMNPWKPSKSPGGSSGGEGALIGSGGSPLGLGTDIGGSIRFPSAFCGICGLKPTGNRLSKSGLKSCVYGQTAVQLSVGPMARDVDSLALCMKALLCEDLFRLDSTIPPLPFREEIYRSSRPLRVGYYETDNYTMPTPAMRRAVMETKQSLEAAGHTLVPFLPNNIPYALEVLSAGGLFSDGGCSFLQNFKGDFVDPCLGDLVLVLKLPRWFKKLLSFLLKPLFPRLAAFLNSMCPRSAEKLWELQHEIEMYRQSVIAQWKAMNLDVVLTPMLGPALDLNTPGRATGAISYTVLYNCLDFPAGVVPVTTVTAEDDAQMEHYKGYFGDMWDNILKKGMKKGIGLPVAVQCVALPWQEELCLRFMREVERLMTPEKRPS

[5] = biological target: T1, MAGL; experiment: In vitro competitive activity-based protein profiling, MAGL, mouse; details: read-out: MAGL % inh. 1 μM (mouse)
Procedure: Biological Evaluation In Vitro Competitive Activity-Based Protein Profiling.
Proteomes (mouse brain membrane fraction for mouse assays; human prefrontal cortex membrane fractions for human assays) (50 mL, 1.0 mg/mL total protein concentration) were preincubated with varying concentrations of inhibitors at 37° C. After 30 min, FP-Rh (1.0 mL, 50 mM in DMSO) was added and the mixture was incubated for another 30 min at 37° C. Reactions were quenched with SDS loading buffer (15 μL—4λ) and run on SDS-PAGE.

[6] = biological target: T4, FAAH; experiment: In vitro competitive activity-based protein profiling, FAAH, mouse; details: read-out: FAAH % inh. 1 μM (mouse)

| Compound | inhibition at 5 mg/kg [1] [%] | inhibition at 1 µM [2] [%] | inhibition at 1 µM [3] [%] | inhibition at 5 mg/kg [4] [%] | inhibition at 1 µM [5] [%] | inhibition at 1 µM [6] [%] | pIC50 [2] |
| --- | --- | --- | --- | --- | --- | --- | --- |
| O=C(O)c1ccn(C(=O)N2CCN(Cc3ccc(C(F)(F)F)c(N4C5CCC4COC5)c3)CC2)n1 [Example 40, 1-(4-(3-(3-oxa-8-azabicyclo[3.2.1]octan-8-yl)-4-(trifluoromethyl)benzyl)piperazine-1-carbonyl)-1H-pyrazole-3-carboxylic acid] | 0 to 25 | 0 to 25 | > 75 | 0 to 25 | > 75 | 0 to 25 | – |
| O=C(O)c1ccn(C(=O)N2CCC3(CCN(Cc4cc(Cl)ccc4C(F)(F)F)C3)CC2)n1 [Example 43, 1-(2-(5-chloro-2-(trifluoromethyl)benzyl)-2,8-diazaspiro[4.5]decane-8-carbonyl)-1H-pyrazole-3-carboxylic acid] | 0 to 25 | 50 to 75 | > 75 | 0 to 25 | > 75 | > 75 | 5.00 to 6.00 |
| O=C(O)c1ccn(C(=O)N2CCN(Cc3ccc(C(F)(F)F)cc3N3CCN4CCC[C@@H]4C3)CC2)n1 [Example 48, (R)-1-(4-(2-(hexahydropyrrolo [1,2-a]pyrazin-2(1H)-yl)-4-(trifluoromethyl)benzyl)piperazine-1-carbonyl)-1H-pyrazole-3-carboxylic acid] | 0 to 25 | 0 to 25 | > 75 | 0 to 25 | > 75 | 0 to 25 | – |
| O=C(O)c1ccn(C(=O)N2CCN(Cc3cccc(Oc4ccc(F)cc4)c3)CC2)n1 [Example 51, 1-(4-(3-(4-fluorophenoxy)benzyl)piperazine-1-carbonyl)-1H-pyrazole-3-carboxylic acid] | 0 to 25 | 50 to 75 | > 75 | 0 to 25 | > 75 | 0 to 25 | 6.00 to 7.00 |
| O=C(O)c1ccn(C(=O)N2C[C@H]3C[C@H](OCc4ccc(Oc5ccc(Cl)cc5)cc4)C[C@H]3C2)n1 [Example 55, 1-(trans-5-((4-(4-chlorophenoxy)benzyl)oxy)octa-hydrocyclopenta[c]pyrrole-2-carbonyl)-1H-pyrazole-3-carboxylic acid] | 0 to 25 | > 75 | > 75 | 0 to 25 | > 75 | > 75 | – |
| O=C(O)c1ccn(C(=O)N2CCN(Cc3cccc(Oc4cc(C(F)(F)F)ccn4)c3)CC2)n1 [Example 57, 1-(4-(3-((4-(trifluoromethyl)pyridin-2-yl)oxy)benzyl)piper-azine-1-carbonyl)-1H-pyrazole-3-carboxylic acid] | 0 to 25 | 50 to 75 | > 75 | 0 to 25 | > 75 | 50 to 75 | 6.00 to 7.00 |
| O=C(O)c1ccn(C(=O)N2CCC3(CCCN3Cc3ccc(C(F)(F)F)cc3Cl)CC2)n1 [Example 76, 1-(1-(2-chloro-4-(trifluoromethyl)benzyl)-1,8-diazaspiro[4.5]decane-8-carbonyl)-1H-pyrazole-3-carboxylic acid] | 0 to 25 | 0 to 25 | > 75 | 0 to 25 | > 75 | 0 to 25 | – |
| O=C(O)c1ccn(C(=O)N2CCN(Cc3ccc(C(F)(F)F)cc3N3CCCC3)CC2)n1 [Example 83, 1-(4-(2-(pyrrolidin-1-yl)-4-(trifluoromethyl)benzyl)piperazine-1-carbonyl)-1H-pyrazole-3-carboxylic acid] | 0 to 25 | 0 to 25 | > 75 | 0 to 25 | > 75 | 0 to 25 | 5.00 to 6.00 |
| O=C(O)c1ccn(C(=O)N2CCC3(CCCN3Cc3cc(Cl)cc(C(F)(F)F)c3)CC2)n1 [Example 86, 1-(1-(3-chloro-5-(trifluoromethyl)benzyl)-1,8-diazaspiro[4.5]decane-8-carbonyl)-1H-pyrazole-3-carboxylic acid] | 0 to 25 | 0 to 25 | > 75 | 0 to 25 | > 75 | 0 to 25 | – |
| O=C(O)c1ccn(C(=O)N2CCC3(CCCN3Cc3cc(N4CCCC4)cc(C(F)(F)F)c3)CC2)n1 [Example 88, 1-(1-(3-(pyrrolidin-1-yl)-5-(trifluoromethyl)benzyl)-1,8-diazaspiro[4.5]decane-8-carbonyl)-1 1H-pyrazole-3-carboxylic acid] | 0 to 25 | 0 to 25 | > 75 | 0 to 25 | > 75 | 0 to 25 | – |
| O=C(O)c1ccn(C(=O)N2CCN(Cc3cccc(C(F)(F)F)c3N3CCCC3)CC2)n1 [Example 90, 1-(4-(2-(pyrrolidin-1-yl)-3-(trifluoromethyl)benzyl)piperazine-1-carbonyl)-1H-pyrazole-3-carboxylic acid] | 0 to 25 | 0 to 25 | > 75 | 0 to 25 | > 75 | 0 to 25 | – |
| O=C(O)c1ccn(C(=O)N2CCN(Cc3ccc(C(F)(F)F)cc3Cl)CC2)n1 [Example 91, 1-(4-(2-chloro-4-(trifluoromethyl)benzyl)piperazine-1-carbonyl)-1H-pyrazole-3-carboxylic acid] | 0 to 25 | 0 to 25 | > 75 | 0 to 25 | > 75 | 0 to 25 | – |
| O=C(O)c1ccn(C(=O)N2CCN(Cc3ccc(C(F)(F)F)cc3N3CC[C@H](F)C3)CC2)n1 [Example 92, (S)-1-(4-(2-(3-fluoropyrrolidin-1-yl)-4-(trifluoromethyl)benzyl)-piperazine-1-carbonyl)-1H-pyrazole-3-carboxylic acid] | 0 to 25 | 0 to 25 | > 75 | 0 to 25 | > 75 | 0 to 25 | 5.00 to 6.00 |
